Laboratory results from PMC12638379, “An innovative approach to development of new pyrazolylquinolin-2-one hybrids as dual EGFR and BRAF^V600E inhibitors” (Molecular Diversity, 2025).
Like-named read-outs stand apart in the source and are kept apart here.

System: NCI 60 cancer cell lines
Assay: NCI anticancer screening over a panel of 60 cancer cells, single concentration 10 µM
Type: cell-based, human
Conditions: Homo sapiens, read-out: % Growth Inhibition (GI %)
Method: Ten final compounds 4a–j and five intermediates 2a–e have been selected by the National Cancer Institute (NCI) for anticancer screening over a panel of 60 cancer cells that cover a variety of histological tissues, including the central nervous system, leukemia, lung, colon, kidney, ovary, breast, and prostate, using the protocol established by the National Cancer Institute (NCI). In a primary screening, each compound was screened at a concentration of 10 µM.
Compounds 2a-e and 4a-j were selected by the National Cancer Institute (NCI) according to the protocol of the Compound Evaluation Branch of the National Cancer Institute, Bethesda, USA, for in vitro anticancer screening which refers in turn to apoptotic activity. The methodology of the NCI anticancer screening has been described in detail elsewhere (http://www.dtp.nci.nih.gov).

## COc1ccc2[nH]c(=O)cc(-n3ncc(/C(C)=N/Nc4ccc(S(N)(=O)=O)cc4)c3C)c2c1 [Compound 4c, (E)-4-(2-(1-(1-(6-methoxy-2-oxo-1,2-dihydroquinolin-4-yl)-5-methyl-1H-pyrazol-4-yl)ethylidene)hydrazineyl)benzenesulfonamide]
786-0, Renal cancer 786-0, 10 μM
  inhibition at 10 µM: < 5%
A498, Renal cancer A498, 10 μM
  inhibition at 10 µM: 7.1%
A549, Non-small cell lung cancer A549/ATCC, 10 μM
  inhibition at 10 µM: < 5%
ACHN, Renal cancer ACHN, 10 μM
  inhibition at 10 µM: < 5%
BT-549, Breast cancer BT-549, 10 μM
  inhibition at 10 µM: < 5%
CAKI-1, Renal cancer CAKI-1, 10 μM
  inhibition at 10 µM: < 5%
CCRF-CEM, Leukemia CCRF-CEM, 10 μM
  inhibition at 10 µM: < 5%
COLO 205, Colon cancer COLO 205, 10 μM
  inhibition at 10 µM: < 5%
DU-145, Prostate cancer DU-145, 10 μM
  inhibition at 10 µM: < 5%
HCC 2998, Colon cancer HCC-2998, 10 μM
  inhibition at 10 µM: < 5%
HCT-116, Colon cancer HCT-116, 10 μM
  inhibition at 10 µM: < 5%
HL-60, Leukemia HL-60(TB), 10 μM
  inhibition at 10 µM: < 5%
HOP-92, Non-small cell lung cancer HOP-92, 10 μM
  inhibition at 10 µM: < 5%
HT-29, Colon cancer HT29, 10 μM
  inhibition at 10 µM: < 5%
IGROV-1, Ovarian cancer IGROV1, 10 μM
  inhibition at 10 µM: < 5%
K562, Leukemia K-562, 10 μM
  inhibition at 10 µM: < 5%
KM12, Colon cancer KM12, 10 μM
  inhibition at 10 µM: < 5%
Leukemia SR, 10 μM
  inhibition at 10 µM: 13%
MCF7, Breast cancer MCF7, 10 μM
  inhibition at 10 µM: 6.69%
MDA-MB-231, Breast cancer MDA-MB-231/ATCC, 10 μM
  inhibition at 10 µM: 8.98%
MDA-MB-435, Melanoma MDA-MB-435, 10 μM
  inhibition at 10 µM: < 5%
MDA-MB-468, Breast cancer MDA-MB-468, 10 μM
  inhibition at 10 µM: 7.22%
MOLT-4, Leukemia MOLT-4, 10 μM
  inhibition at 10 µM: < 5%
Melanoma M14, 10 μM
  inhibition at 10 µM: < 5%
Melanoma MALM-3M, 10 μM
  inhibition at 10 µM: 10.6%
NCI-H23, Non-small cell lung cancer NCI-H23, 10 μM
  inhibition at 10 µM: 6%
NCI-H226, Non-small cell lung cancer NCI-H226, 10 μM
  inhibition at 10 µM: 8.4%
NCI-H460, Non-small cell lung cancer NCI-H460, 10 μM
  inhibition at 10 µM: < 5%
NCI-H522, Non-small cell lung cancer NCI-H522, 10 μM
  inhibition at 10 µM: 11.8%
OVCAR-3, Ovarian cancer OVCAR-3, 10 μM
  inhibition at 10 µM: < 5%
OVCAR-4, Ovarian cancer OVCAR-4, 10 μM
  inhibition at 10 µM: < 5%
OVCAR-5, Ovarian cancer OVCAR-5, 10 μM
  inhibition at 10 µM: < 5%
OVCAR-8, Ovarian cancer OVCAR-8, 10 μM
  inhibition at 10 µM: < 5%
Prostate cancer PC-3, 10 μM
  inhibition at 10 µM: < 5%
RPMI-8226, Leukemia RPMI-8226, 10 μM
  inhibition at 10 µM: < 5%
RXF 393, Renal cancer RXF 393, 10 μM
  inhibition at 10 µM: 6.12%
SF-268, CNS Cancer SF-268, 10 μM
  inhibition at 10 µM: < 5%
SF-295, CNS Cancer SF-295, 10 μM
  inhibition at 10 µM: 10.5%
SF-539, CNS Cancer SF-539, 10 μM
  inhibition at 10 µM: 5.07%
SK-MEL-2, Melanoma SK-MEL-2, 10 μM
  inhibition at 10 µM: < 5%
SK-MEL-5, Melanoma SK-MEL-5, 10 μM
  inhibition at 10 µM: < 5%
SK-MEL-28, Melanoma SK-MEL-28, 10 μM
  inhibition at 10 µM: < 5%
SK-OV-3, Ovarian cancer SK-OV-3, 10 μM
  inhibition at 10 µM: < 5%
SN12C, Renal cancer SN12C, 10 μM
  inhibition at 10 µM: 8.13%
SNB-19, CNS Cancer SNB-19, 10 μM
  inhibition at 10 µM: 5.89%
SNB-75, CNS Cancer SNB-75, 10 μM
  inhibition at 10 µM: < 5%
SW-620, Colon cancer SW-620, 10 μM
  inhibition at 10 µM: < 5%
T47D, Breast cancer T-47D, 10 μM
  inhibition at 10 µM: 12.1%
TK-10, Renal cancer TK-10, 10 μM
  inhibition at 10 µM: < 5%
U-251, CNS Cancer U251, 10 μM
  inhibition at 10 µM: < 5%
UACC-62, Melanoma UACC-62, 10 μM
  inhibition at 10 µM: 5.15%
UACC-257, Melanoma UACC-257, 10 μM
  inhibition at 10 µM: < 5%
UO-31, Renal cancer UO-31, 10 μM
  inhibition at 10 µM: 12.9%
